Measured values taken from patent US11925644B2, “Crystalline salts of 5-methyl-(6S)-tetrahydrofolic acid and l-leucine ethyl ester” (MERCK PATENT GMBH, priority 2018, dated 2024).

Legend:
[1] = cited from earlier work; for aqueous solubility: room temperature
[2] = purified/de-ionized water, room temperature, agitated one minute, gravimetric
Description: (§1) 2.00 mL of purified/de-ionized water (for instance water for chromatography) was added to the solid using an adjustable volumetric pipette. The mixture was vigorously agitated at room temperature for one minute. […] The solution was filtered by centrifugal filtration and 1.50 mL of the aqueous solution was transferred into a tared glass vial (about 10 mL volume). The water was evaporated in an air dryer at 40° C. for about 15 hours, then at 50° C. for about eight hours, subsequently drying was completed at 50° C. under vacuum (10 to 20 mbar) for about 13 hours. The solubility was determined by gravimetric evaluation of the solid residue.
as §1, with “The suspension” for “The solution”

Water content (TG-FTIR) = assay type: physicochemical
Description: Thermogravimetric measurements were carried out with a Netzsch Thermo-Microbalance TG 209 coupled to a Bruker FTIR Spectrometer Vector 22 (sample pans with a pinhole, N2 atmosphere, heating rate 10 K/min).
About 420 mg of the solid material obtained in Example 2 was weighed into a filter centrifuge device and 2.0 mL of water is added followed by centrifugation under ambient conditions. This wash step is repeated twice more using 0.5 mL of water. The wet filter cake is then transferred to a fritted glass filter and air dried by drawing ambient air (about 22° C./about 21% r.h.) through the glass filter for about 10 minutes.
(§2) DVS measurements were performed as follows: The sample was placed on an aluminum holder on top of a microbalance and allowed to equilibrate at 50% RH before starting the pre-defined humidity program: • (1) two hours kept at 50% constant relative humidity (RH) then • (2) reduced to 0% RH at a rate of 5% per hour • (3) maintained RH at 0% for five hours • (4) raised RH to 75% at a rate of 5% per hour • (5) maintained RH at 75% for five hours • (6) reduced to 0% RH at a rate of 5% per hour • (7) maintained RH at 0% for five hours • (8) raised RH to 75% at a rate of 5% per hour • (9) reduced to 50% RH at a rate of 5% per hour • (10) maintained RH at 50% for about one hour

[3] = Hygroscopicity by dynamic water vapor sorption analysis (DVS); assay type: physicochemical; conditions: 0 to 75% r.h.
Description: DVS measurements are typically performed with an SPS11-100n “Sorptions Prüfsystem” from ProUmid (formerly “Projekt Messtechnik”), August-Nagel-Str. 23, 89079 Ulm (Germany).
as §2
The results are illustrated in FIG. 2.

CN1c2c([nH]c(N)nc2=O)NC[C@@H]1CNc1ccc(C(=O)N[C@@H](CCC(=O)[O-])C(=O)[O-])cc1.[Ca+2] [calcium salt (Form III), calcium salt of 5-methyl-(6S)-tetrahydrofolic acid]
aqueous solubility [1]: about 2.5 mg/ml

5-methyl-(6S)-tetrahydrofolic acid calcium salt
kinetic solubility [2]: 9.0 mg of 5-methyl-(6S)-tetrahydrofolic acid per mL
water content (Water content (TG-FTIR); method not stated): 12.4%
change of water content within tested relative humidity range [3]: about 7.4%

CN1c2c([nH]c(N)nc2=O)NC[C@@H]1CNc1ccc(C(=O)N[C@@H](CCC(=O)[O-])C(=O)[O-])cc1.[Ca+2] [Form I, calcium salt of 5-methyl-(6S)-tetrahydrofolic acid]
aqueous solubility [1]: about 10 mg/ml

CN1c2c(nc(N)[nH]c2=O)NC[C@@H]1CNc1ccc(C(=O)N[C@@H](CCC(=O)O)C(=O)O)cc1 [5-methyl-(6S)-tetrahydrofolic acid]
solubility in water ([1]; water): poorly soluble in water

CCOC(=O)[C@@H](N)CC(C)C.CN1c2c([nH]c(N)nc2=O)NC[C@@H]1CNc1ccc(C(=O)N[C@@H](CCC(=O)O)C(=O)O)cc1 [5-methyl-(6S)-tetrahydrofolic acid L-leucine ethyl ester 1:1 salt]
water content (Water content (TG-FTIR); TG-FTIR analysis): about 0.7%
